{
  "source": "paper PMC6222696",
  "about": "“Inhibition of UGT2B7 Enzyme Activity in Human and Rat Liver Microsomes by Herbal Constituents” (Molecules : A Journal of Synthetic Chemistry and Natural …, 2018)",
  "origin": "cited, not measured here",
  "tested_on": "UGT nonspecific",
  "parameters": "method as in PMID 28479734",
  "settings": "system not given; cited from earlier work",
  "data": [
    {"smiles": "COc1cc(C=O)ccc1O", "note": "[Vanillin]", "values": [
      {"measurement": "UGT nonspecific, in vitro study", "result": "UGT nonspecific ↓"}
    ]}
  ]
}
